# Results from doi:10.1101/2024.06.05.597555v1 (biorxiv, 2024).
# Read-outs that look alike come from different tables or passages of the source.
# What was measured:
# DENV-2 = assay: microbe, parasite or virus in culture; settings: Dengue virus, DENV2, Vero, 48 h, read-out: % inhibition
# [1] = molecular target: T1, NS2B(H)-NS3pro (DENV-2 NS2B-NS3 protease) (Dengue virus 2 Thailand/NGS-C/1944, UniProt P14340); assay: fluorometric protease assay, AMC substrate; type: biochemical; settings: pH 7.5, HEPES, CHAPS; substrate Bz-nKRR-AMC
# T1 sequence (P14340 1394-1433 limits assumed): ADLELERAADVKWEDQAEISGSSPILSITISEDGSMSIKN
# T1 sequence (P14340 1476-1660 limits assumed): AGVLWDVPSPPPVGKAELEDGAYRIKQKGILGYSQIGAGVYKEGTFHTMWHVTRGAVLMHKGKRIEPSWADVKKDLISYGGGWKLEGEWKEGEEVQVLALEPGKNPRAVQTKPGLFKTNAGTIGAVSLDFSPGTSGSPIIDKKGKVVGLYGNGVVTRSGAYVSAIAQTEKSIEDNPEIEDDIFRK
# [2] = molecular target: T1, NS2B(H)-NS3pro (DENV-2 NS2B-NS3 protease); settings: read-out: IC50 (C7.5-HEPES AMC); AMC substrate, HEPES pH 7.5, CHAPS; inhibitor
# [3] = molecular target: T2, DENV2proHeLa NS2B-NS3 protease (Dengue virus 2 Thailand/16681/84, UniProt P29990); assay: cell-based; parameters: species or system DENV2proHeLa (HeLa)
# T2 sequence (P29990 1476-2093 limits assumed): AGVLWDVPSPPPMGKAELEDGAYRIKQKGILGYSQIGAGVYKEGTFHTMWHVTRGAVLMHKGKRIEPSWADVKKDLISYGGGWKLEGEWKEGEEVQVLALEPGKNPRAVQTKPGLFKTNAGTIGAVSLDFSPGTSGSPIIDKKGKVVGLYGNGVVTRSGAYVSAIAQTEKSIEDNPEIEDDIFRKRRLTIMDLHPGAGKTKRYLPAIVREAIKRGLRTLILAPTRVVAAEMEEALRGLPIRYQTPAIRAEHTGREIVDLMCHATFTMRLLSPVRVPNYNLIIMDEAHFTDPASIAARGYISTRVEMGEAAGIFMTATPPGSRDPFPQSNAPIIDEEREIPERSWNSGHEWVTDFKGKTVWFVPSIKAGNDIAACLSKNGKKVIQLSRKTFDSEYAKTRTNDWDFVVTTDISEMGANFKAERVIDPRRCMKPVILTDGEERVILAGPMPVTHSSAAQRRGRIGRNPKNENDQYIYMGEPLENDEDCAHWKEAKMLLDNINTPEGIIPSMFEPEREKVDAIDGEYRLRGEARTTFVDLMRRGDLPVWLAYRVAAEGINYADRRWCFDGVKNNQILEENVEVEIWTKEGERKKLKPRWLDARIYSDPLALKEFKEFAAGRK
# T2 sequence (P29990 1346-1475 partner limits assumed): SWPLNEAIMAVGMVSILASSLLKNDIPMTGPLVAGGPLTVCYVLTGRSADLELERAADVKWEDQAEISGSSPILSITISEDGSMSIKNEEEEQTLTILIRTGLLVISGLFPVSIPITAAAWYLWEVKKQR
# [4] = molecular target: T2, DENV2proHeLa NS2B-NS3 protease; assay: cell-based; parameters: species or system DENV2proHeLa (HeLa); settings: HeLa, read-out: % inhibition
# in vitro [5] = assay: in vitro; parameters: species or system DENV2proHeLa (HeLa); settings: human, denv2prohela cells
# [6] = molecular target: T1, NS2B(H)-NS3pro (DENV-2 NS2B-NS3 protease); assay: biochemical; settings: read-out: % inhibition
# [7] = molecular target: T2, DENV2proHeLa NS2B-NS3 protease; assay: cell-based
# [8] = molecular target: T2, DENV2proHeLa NS2B-NS3 protease; assay: cell-based; parameters: species or system DENV2proHeLa (HeLa); settings: HeLa, read-out: % inhibition; remark: listed apart in the source
# in vitro [9] = assay: in vitro; parameters: species or system DENV2proHeLa (HeLa); settings: human, denv2prohela cells; remark: listed apart in the source
# [10] = molecular target: T1, NS2B(H)-NS3pro (DENV-2 NS2B-NS3 protease); assay: biochemical; settings: read-out: % inhibition; remark: listed apart in the source
# in vitro [11] = assay: in vitro; parameters: species or system DENV2proHeLa (HeLa); settings: human, denv2prohela cells; remark: listed apart in the source
# [12] = molecular target: T2, DENV2proHeLa NS2B-NS3 protease; assay: cell-based; parameters: species or system DENV2proHeLa (HeLa); settings: HeLa, read-out: % inhibition; remark: listed apart in the source
# [13] = molecular target: T2, DENV2proHeLa NS2B-NS3 protease; assay: cell-based; parameters: species or system DENV2proHeLa (HeLa); remark: listed apart in the source
# [14] = molecular target: T1, NS2B(H)-NS3pro (DENV-2 NS2B-NS3 protease); settings: read-out: IC50 (C7.5-HEPES AMC); AMC substrate, HEPES pH 7.5, CHAPS; inhibitor; remark: listed apart in the source
# in vitro [15] = assay: in vitro; parameters: species or system DENV2proHeLa (HeLa); settings: human, denv2prohela cells; remark: listed apart in the source
# [16] = molecular target: T2, DENV2proHeLa NS2B-NS3 protease; assay: cell-based; parameters: species or system DENV2proHeLa (HeLa); settings: HeLa, read-out: % inhibition; remark: listed apart in the source
# [17] = read-out: DENV2proHeLa EC50, inhibitor
smiles,measurement,setting,value
COc1ccc(/C=C/C(=O)C(=O)NC(C)(C)C)cc1OC [GG-80-1],inhibition at 25 µM,DENV-2,97%
CC(C)(C)NC(=O)C(=O)/C=C/c1c[nH]c2ccccc12 [GG-92],inhibition at 25 µM,DENV-2,40%
NC(=O)c1cccc(NC(=O)[C@@H](NC(=O)c2ccc(Oc3ccccc3)cc2)c2ccc(OCc3ccccc3)cc2)c1 [compound 1],IC50,[1],13 µM
"CC(C)Cc1ccc(C(C)C(=O)N[C@H](C(=O)Nc2cccc(C(N)=O)c2)c2ccc(OCc3ccccc3)cc2)cc1 (stereo partly shown) [compound 3, 3]",IC50,[2],8 µM
same,EC50,[3],3.8 µM
same,inhibition at 12.5 µM,[4],84%
same,CC50,in vitro [5],> 25 µM
"CC(C(=O)N[C@H](C(=O)Nc1cccc(C(N)=O)c1)c1ccc(OCc2ccccc2)cc1)c1cccc(Oc2ccccc2)c1 (stereo partly shown) [compound 4, 4]",inhibition at 25 µM,DENV-2,85%
same,IC50,[2],9.7 µM
same,EC50,[3]; [17],4 µM
same,inhibition at 50 µM,[6],100%
same,inhibition at 12.5 µM,[4],86%
same,CC50,in vitro [5],> 50 µM
"NC(=O)c1cccc(NC(=O)[C@@H](NC(=O)c2ccc(-c3ccccc3)o2)c2ccc(OCc3ccccc3)cc2)c1 [compound 5, 5]",inhibition at 25 µM,DENV-2,96%
same,IC50,[2],9.3 µM
same,EC50,[3]; [17],5.9 µM
same,inhibition at 50 µM,[6],100%
same,inhibition at 12.5 µM,[4],85%
same,CC50,in vitro [5],> 100 µM
"CC(C(=O)NCC1(CC(=O)N[C@H](C(=O)Nc2cccc(C(N)=O)c2)c2ccc(OCc3ccccc3)cc2)CCCCC1)c1ccc2c(c1)[nH]c1ccc(Cl)cc12 (stereo partly shown) [compound 6, 6]",IC50,[2],8 µM
same,EC50,[3]; [17],2.9 µM
same,inhibition at 50 µM,[6],99%
same,inhibition at 12.5 µM,[4],60%
same,CC50,in vitro [5],> 50 µM
NC(=O)c1cccc(NC(=O)[C@@H](NC(=O)c2ccc(Nc3ccccc3)cc2)c2ccc(OCc3ccccc3)cc2)c1 [compound 7],inhibition at 25 µM,DENV-2,< 10%
same,inhibition at 50 µM,[6],99%
same,inhibition at 12.5 µM,[4],93%
same,CC50,in vitro [5],≥ 100 µM
same,EC50,[7],0.7 µM
"COc1cc(C(=O)N[C@H](C(=O)Nc2cccc(C(N)=O)c2)c2ccc(OCc3ccccc3)cc2)ccc1Oc1ccccc1 [compound 8, 8]",IC50,[2],12 µM
same,EC50,[3],1.4 µM
same,inhibition at 50 µM,[6],99%
same,inhibition at 12.5 µM,[4],86%
same,CC50,in vitro [5],> 100 µM
"NC(=O)c1cccc(NC(=O)[C@@H](NC(=O)Cc2ccccc2Nc2c(Cl)cccc2Cl)c2ccc(OCc3ccccc3)cc2)c1 [compound 9, 9]",IC50,[2],10 µM
same,EC50,[3],8.6 µM
same,inhibition at 50 µM,[6],99%
same,inhibition at 12.5 µM,[4],60%
same,CC50,in vitro [5],> 50 µM
"COc1ccc2cc([C@H](C)C(=O)N[C@H](C(=O)Nc3cccc(C(N)=O)c3)c3ccc(OCc4ccccc4)cc3)ccc2c1 [compound 10, 10]",IC50,[2],12 µM
same,EC50,[3]; [17],3.7 µM
same,inhibition at 12.5 µM,[4],71%
same,CC50,in vitro [5],> 100 µM
"NC(=O)c1cccc(NC(=O)[C@@H](NC(=O)Cc2ccc(Oc3ccccc3)cc2)c2ccc(OCc3ccccc3)cc2)c1 [compound 11, 11]",IC50,[2],14 µM
same,EC50,[3],6.9 µM
same,inhibition at 50 µM,[6],99%
same,inhibition at 12.5 µM,[4],78%
same,CC50,in vitro [5],> 50 µM
CC(CC(=O)N[C@H](C(=O)Nc1cccc(C(N)=O)c1)c1ccc(OCc2ccccc2)cc1)CC(C)(C)C (stereo partly shown) [compound 16],inhibition at 25 µM,DENV-2,98%
same,inhibition at 12.5 µM,[8],61%
same,EC50,[7],11 µM
same,CC50,in vitro [9],≥ 100 µM
same,IC50,[1],11 µM
NC(=O)c1cccc(NC(=O)[C@@H](NC(=O)c2cc(O)n(-c3ccccc3)n2)c2ccc(OCc3ccccc3)cc2)c1 [compound 27],inhibition at 12.5 µM,[8],24%
same,CC50,in vitro [9],> 50 µM
same,IC50,[1],30 µM
"CC(C(=O)N[C@H](C(=O)Nc1cccc(C(N)=O)c1)c1ccc(OCc2ccccc2)cc1)c1ccccc1 (stereo partly shown) [compound 28, 28]",inhibition at 50 µM,[10],83%
same,CC50,in vitro [11],> 50 µM
same,inhibition at 12.5 µM,[12],77%
same,EC50,[13],8 µM
same,IC50,[14],17 µM
"Cc1onc(-c2ccc(F)cc2)c1C(=O)N[C@H](C(=O)Nc1cccc(C(N)=O)c1)c1ccc(OCc2ccccc2)cc1 [compound 29, 29]",inhibition at 50 µM,[10],82%
same,CC50,in vitro [11],> 50 µM
same,inhibition at 12.5 µM,[12],64%
same,IC50,[14],14 µM
NC(=O)c1cccc(NC(=O)[C@@H](NC(=O)c2ccc(Oc3ccccc3)nc2)c2ccc(OCc3ccccc3)cc2)c1 [compound 33],inhibition at 50 µM,[10],70%
same,CC50,in vitro [11],> 100 µM
same,inhibition at 12.5 µM,[12],55%
same,EC50,[7],8.8 µM
same,IC50,[1],34 µM
"CC(C)CCC(=O)N1CCC(C(=O)N[C@H](C(=O)Nc2cccc(C(N)=O)c2)c2ccc(OCc3ccccc3)cc2)CC1 [compound 34, 34]",inhibition at 50 µM,[10],69%
same,CC50,in vitro [11],> 100 µM
same,inhibition at 12.5 µM,[12],53%
same,EC50,[13],11 µM
"Cc1nc(-c2ccncc2)sc1C(=O)N[C@H](C(=O)Nc1cccc(C(N)=O)c1)c1ccc(OCc2ccccc2)cc1 [compound 35, 35]",inhibition at 50 µM,[10],69%
same,CC50,in vitro [11],> 50 µM
same,inhibition at 12.5 µM,[12],78%
"NC(=O)c1cccc(NC(=O)[C@@H](NC(=O)OCc2ccccc2)c2ccc(OCc3ccccc3)cc2)c1 [compound 36, 36]",CC50,in vitro [11],≥ 50 µM
same,inhibition at 12.5 µM,[12],60%
same,EC50,[13],5 µM
same,IC50,[14],28 µM
"NC(=O)c1cccc(NC(=O)C(NC(=O)c2ccccc2)c2ccc(OCc3ccccc3)cc2)c1 (stereo not shown) [compound 42, 42]",inhibition at 50 µM,[10],56%
same,CC50,in vitro [11],> 100 µM
same,inhibition at 12.5 µM,[12],80%
"NC(=O)c1cccc(NC(=O)C(CC2CCCCC2)NC(=O)c2ccc(Oc3ccccc3)cc2)c1 (stereo not shown) [compound 64, 64]",CC50,in vitro [15],40 µM
same,inhibition at 12.5 µM,[16],82%
NC(=O)c1cccc(NC(=O)C(Cc2ccc3ccccc3c2)NC(=O)c2ccc(Oc3ccccc3)cc2)c1 (stereo not shown) [compound 65],CC50,in vitro [15],> 50 µM
same,inhibition at 12.5 µM,[16],55%
same,EC50,[7],7.4 µM
same,IC50,[1],5.9 µM
"NC(=O)c1cccc(NC(=O)C(CCc2ccccc2)NC(=O)c2ccc(Oc3ccccc3)cc2)c1 (stereo not shown) [compound 66, 66]",CC50,in vitro [15],> 50 µM
same,inhibition at 12.5 µM,[16],67%
NC(=O)c1cccc(NC(=O)C(Cc2ccc(NCc3ccccc3)cc2)NC(=O)c2ccc(Oc3ccccc3)cc2)c1 (stereo not shown) [compound 68],CC50,in vitro [15],> 50 µM
same,IC50,[1],15 µM
"NC(=O)c1cccc(NC(=O)C(Cc2ccccc2)NC(=O)c2ccc(Oc3ccccc3)cc2)c1 (stereo not shown) [compound 70, 70]",CC50,in vitro [15],> 50 µM
same,inhibition at 12.5 µM,[16],55%
"NC(=O)c1cccc(NC(=O)C(CCC(=O)Nc2ccccc2)NC(=O)c2ccc(Oc3ccccc3)cc2)c1 (stereo not shown) [compound 71, 71]",CC50,in vitro [15],> 50 µM
same,inhibition at 12.5 µM,[16],45%
"CC(C)CC(NC(=O)c1ccc(Oc2ccccc2)cc1)C(=O)Nc1cccc(C(N)=O)c1 (stereo not shown) [compound 73, 73]",CC50,in vitro [15],≥ 50 µM
same,inhibition at 12.5 µM,[16],36%
